Measurements published in patent US20180369264A1, “COMBINATION OF A CARDIAC STEROID AND AN AKT INHIBITOR FOR THE TREATMENT OF CARDIOVASCULAR DISEASES AND DISORDERS” (YISSUM RESEARCH DEVELOPMENT COMPANY OF THE HEBREW …, priority 2015, published 2018).
Several values for one entry are separate records, joined by “and”; a condition that tells them apart may be missing. Identical values can stand only once. Like-named read-outs stand apart in the source and are kept apart here.

How the values were obtained:
Akt = test system: Akt; parameters: scale not given here; conditions: class symbols, key not given; cited from earlier work
[1] = test system: primary adult zebrafish cardiomyocytes; experiment: Primary adult zebrafish cardiomyocyte contractility; assay type: cell-based
Method: Adult (4 to 12-month-old) ventricular myocytes were obtained by enzymatic dissociation (with collagenase II and IV, at 5 mg/ml, each). The zebrafish were stunned by a blow to the head and the brain was pithed. The heart was quickly removed and placed in a small Petri dish containing 10 ml isolation solution: 100 mM NaCl, 10 mM KCl, 1.2 mM KH2PO4, 4 mM MgSO4, 50 mM taurine, 20 mM glucose, and 10 mM Hepes, pH 6.9. The ventricle was cut free from the bulbus and atrium under a binocular. Ventricles from 3 fish were incubated for 45 minutes at 32° C. in a solution containing perfusion buffer (150 mM NaCl, 5.4 mM KCl, 1.5 mM MgSO4, 0.4 mM NaH2PO4, 2 mM CaCl2, 10 mM glucose, and 10 mM Hepes, pH 7.7). Collagenases II and IV (Gibco, NY, USA, 5 mg/ml each) and additional CaCl2 (2.012 mM final concentration) were added. Following Eppendorf centrifugation (1 minute, 250×g at room temperature) the precipitated cells were suspended in 1 ml perfusion buffer for 30 minutes at room temperature before use.
Cells were transferred to a chamber with a quartz base and examined using an inverted epifluorescence microscope (Nikon Diaphot 200, Japan). The myocytes were field-stimulated (0.5 Hz, 70 V, square waves) and contractions were measured using a video motion edge detector (Crescent Electronics, Sandy, Utah, USA) at the rate of 5 Hz. Cardiomyocyte performance was calculated as the percentage of resting cell length. The slopes of contraction and relaxation (+dL/dt and −dL/dt) were calculated from the linear portions of the changes in contractility. 9 cells per each group were measured. Each of the experiments was repeated at least 3 times with identical results.

ERK = ERK phosphorylation in adult zebrafish heart (Western blot); assay type: in vivo; conditions: adult zebrafish heart, control experiments
Method: Adult zebrafish (˜12-months-old) were transferred to swimming medium containing 1 μM of CS drugs, as specified in the following examples. At various time points (5-30 min), as indicated in the following examples, the zebrafish were transferred to perfusion buffer and the hearts were immediately removed and transferred to RIPA lysis buffer (Sigma-Aldrich), and protease inhibitor cocktail (P8340, Sigma-Aldrich), at a 1:100 dilution). The tissue was homogenized in an ultrasonic homogenizer (Microson, NY, USA) and aliquots of the homogenate were stored at −70° C. until used.
Protein dilution and separation on SDS-PAGE electrophoresis, their transfer to a polyvinylidene fluoride membrane were carried out. […] The membranes were washed with TBS containing 0.1% Tween and exposed to horseradish peroxidase-conjugated secondary goat anti-rabbit IgG antibody (1:50,000). The membranes were stripped prior to their exposure to a different antibody. Detection was carried out with the aid of a Luminata™ Crescendo Western HRP Substrates, according to the manufacturer's instructions.

[2] = test system: wild-type zebrafish larvae heart; assay type: in vivo, zebrafish (Danio rerio); conditions: for effect on force of contraction / effect on heart rate: 1 nM
Method: Experiments were performed on wild-type (WT, AB strain) zebrafish (Danio rerio). The fish were maintained in accordance with the principles established by the NIH. […] The fish were kept in swimming medium (E3 medium) in small aquaria at 28° C. and maintained under a 14h: 10h light:dark cycle. The zebrafish larvae were maintained in the presence of 0.1% methylene blue (M9140, Sigma-Aldrich Inc, Israel) at 28° C. All measurements were taken in embryos at 72 hours post fertilization (hpf).
Ouabain, bufalin, digoxin, acetylcholine, carbachol, […] (pp2) and U0126 (1,4-diamino-2,3-dicyano-1,4-bis(2-aminophenylthio)butadiene) were purchased from Sigma-Aldrich Inc., Israel. The compounds were dissolved in egg water (0.3 g Instant Ocean Salt in distilled water) to a final selected concentration, as specified in the following examples. […]
(§1) Filming process Zebrafish larvae heart imaging was performed using an Olympus CKX41 (Japan) […] microscope with ×10 or ×20 magnification, and integrated incandescent illumination. A FastCam imi-tech (Korea) high speed digital camera with 640×480 pixel gray scale image sensor was mounted on the microscope, using ImCam software (IMI Technology, Co. Ltd) for high speed video recording. The larvae were anesthetized by placing them in filming/anesthetizing medium. Each larva in 0.5 ml filming/anesthetizing medium was transferred to a 96-well tissue culture plate at room temperature and sequential images of the heart were obtained, with the larvae positioned on their side, at 80 fps during 10 seconds with a shutter speed of 0.016 seconds.
Physiological parameters of cardiovascular performance, as indicated hereinbelow, were evaluated in the zebrafish larvae. Image analysis applications ImageJ (NIH, USA) were used, allowing the delineation of the endomyocardial border at the end of systole or end of diastole to define the ventricular area. Sequential still frames were analyzed to capture ventricular end-systole and end-diastole images. End Systolic Area (ESA, FIG. 1B) and End Diastolic Area (EDA, FIG. 1C) were used to calculate Fractional Area Change (FAC), according to the equation: FAC=(EDA-ESA)/EDA*100. The Ejection Fraction (EF) was determined by an independent estimate of ventricular volume. This was achieved by placing scan lines across the midventricular short axis (SA) and long axis (LA) at the end of systole (FIG. 1D) and diastole (FIG. 1E). […] EF was then calculated according to the equation: EF=(EDV-ESV)/EDV*100. Heart rate (HR) was measured in beats per minute. Cardiac output (CO) was calculated according to the equation: CO=(EDV-ESV)*HR. A minimum of five sequential pairs of systolic and diastolic cycles were measured and analyzed in 9-12 larvae for each treatment.

[3] = test system: zebrafish accordion mutant (acc) larvae heart; experiment: In-vivo heart contractility measurements in zebrafish acc mutant larvae; parameters: species or system zebrafish (Danio rerio); conditions: 1 nM, 90 minutes
Method: Ouabain, bufalin, digoxin, acetylcholine, carbachol, […] (pp2) and U0126 (1,4-diamino-2,3-dicyano-1,4-bis(2-aminophenylthio)butadiene) were purchased from Sigma-Aldrich Inc., Israel. The compounds were dissolved in egg water (0.3 g Instant Ocean Salt in distilled water) to a final selected concentration, as specified in the following examples. The larvae in 20 μL of E3 medium were transferred to the egg water solution containing one or two of the above specified drugs of choice, and incubated for 60-90 minutes at 28° C.
as §1
Physiological parameters of cardiovascular performance, as indicated hereinbelow, were evaluated in the zebrafish larvae. […] Sequential still frames were analyzed to capture ventricular end-systole and end-diastole images. […] The Ejection Fraction (EF) was determined by an independent estimate of ventricular volume. […] EF was then calculated according to the equation: EF=(EDV-ESV)/EDV*100. Heart rate (HR) was measured in beats per minute. Cardiac output (CO) was calculated according to the equation: CO=(EDV-ESV)*HR. A minimum of five sequential pairs of systolic and diastolic cycles were measured and analyzed in 9-12 larvae for each treatment.

[4] = in vivo; cited from earlier work
[5] = wt, ERK inhibitor experiment, 0.1 nM Oua, 10 nM PD98059, 20 minutes, 0.5 Hz

## C=CCc1ccc(O)c(-c2ccc(O)c(CC=C)c2)c1 [Honokiol, 2-(4-hydroxy-3-prop-2-enylphenyl)-4-prop-2-enylphenol]
Akt
  Akt: ✓

## CCCCCCCCCCCCCCCCOP(=O)([O-])OCC[N+](C)(C)C [Miltefosine, hexadecyl 2-(trimethylazaniumyl)ethyl phosphate]
Akt
  Akt: ✓

## COc1cccc(-c2cc(=O)c3ccccc3o2)c1N [PD98059, 2′-amino-3′-methoxyflavone]
[1]; 10 nM PD98059
  amplitude of cell contraction, inhibitor alone: did not affect the amplitude of cell contraction
  contractility and relaxation rise time, inhibitor alone: increased contractility and relaxation rise time
[1]; 10 nM PD98059, 0.1 nM ouabain
  ouabain-induced increases in all contractility parameters in the presence of the inhibitor: completely prevented
[1]; [5]
  Amplitude: 0.13 ± 0.01
  Contraction Rate (−dv/dt): 0.87 ± 0.09
  Relaxation Rate (+dv/dt): 0.78 ± 0.14
ERK
  effect on CS-induced increase in ERK phosphorylation: inhibit the CS-induced increase in ERK phosphorylation

## CC(C)(C)n1nc(-c2ccc(Cl)cc2)c2c(N)ncnc21 [PP2]
[2]; PP2 50 nM, U0126 1 μM, MK-2206 10 nM for 2 hours
  effect of inhibitor alone on heart function / basal contractility: did not affect heart function
[2]; inhibitor 30 minutes (PP2 50 nM; U0126 1 μM), then CS, measured 90 minutes later
  effect on CS-induced increase in contractility: completely abolished the CS-induced increase in contractility

## Cc1ccccc1CN1C2=NCCN2C(=O)C2=C1CCN(Cc1ccccc1)C2 [TIC10 Analogue, 2,6,7,8,9,10-hexahydro-10-[(2-methylphenyl)methyl]-7-(phenylmethyl)-imidazo[1,2-a]pyrido[4,3-d]pyrimidin-5(3H)-one]
Akt
  Akt: ✓

## Cc1ccccc1CN1C(=O)C2=C(CCN(Cc3ccccc3)C2)N2CCN=C12 [TIC10, 2,4,6,7,8,9-hexahydro-4-[(2-methylphenyl)methyl]-7-(phenylmethyl)-imidazo[1,2-a]pyrido[3,4-e]pyrimidin-5(1H)-one]
Akt
  Akt: ✓

## N#CC(=C(N)Sc1ccccc1N)C(C#N)=C(N)Sc1ccccc1N [U0126, 1,4-diamino-2,3-dicyano-1,4-bis(2-aminophenylthio)butadiene]
ERK
  effect on CS-induced increase in ERK phosphorylation: inhibit the CS-induced increase in ERK phosphorylation
[2]; zebrafish, in vivo
  effect of inhibitor alone on heart function / basal contractility: did not affect basal contractility
  effect on CS-induced increase in contractility: prevented the CS-induced increase in contractility

## CNC[C@H](O)c1ccc(O)c(O)c1 [adrenalin]
[2]; zebrafish, in vivo
  effect on heart contractility and rate: significant increase in heart contractility and rate
  effect on heart force of contraction and rate: increase in heart contractility and rate
  increase in CO: 18.34±1.97% and 30.48±2.67%

## C[C@]12CC[C@H](O)C[C@H]1CC[C@@H]1[C@@H]2CC[C@]2(C)[C@@H](c3ccc(=O)oc3)CC[C@]12O [bufalin, 5-[(3 S,5R,8R,9S,10S,13R,14S,17R)-3,14-dihydroxy-10,13-dimethyl-1,2,3,4,5,6,7,8,9,11,12,15,16,17-tetradecahydrocyclopenta[a]phenanthren-17-yl]pyran-2-one]
[3]
  effect on heart contractility: no effect on heart contractility
[2]
  effect on force of contraction: increased significantly the force of contraction
  effect on heart rate: without affecting heart rate
[2]; added to larvae swimming medium
  concentration producing a significant increase in heart contractility: 0.1 nM

## C[N+](C)(C)CCOC(N)=O [carbachol]
[2]; 1 μM, 90 minutes, wt larvae
  reduction in cardiac output (CO): 10.39±2.2%
[2]; 10 μM, 90 minutes, wt larvae
  reduction in cardiac output (CO): 16.92±3%
[2]; 1 and 10 μM, 90 minutes, wt larvae
  effect on heart force of contraction and rate: decreased the heart force of contraction and rate

## C[C@H]1O[C@@H](O[C@@H]2[C@@H](O)C[C@H](O[C@@H]3[C@@H](O)C[C@@H](O[C@H]4CC[C@@]5(C)[C@H](CC[C@@H]6[C@@H]5C[C@@H](O)[C@]5(C)C(C7=CC(=O)OC7)CC[C@]65O)C4)O[C@@H]3C)O[C@@H]2C)C[C@H](O)[C@H]1O (stereo partly drawn) [digoxin, 4-[(3 S,5R,8R,9S,10S,12R,13 S, 14S)-3-[(2S,4S,5R,6R)-5-[(2S,4S,5R,6R)-5-[(2S,4S,5R,6R)-4,5-dihydroxy-6-methyl-oxan-2-yl]oxy-4-hydroxy-6-methyl-oxan-2-yl]oxy-4-hydroxy-6-methyl-oxan-2-yl]oxy-12,14-dihydroxy-10,13-dimethyl-1,2,3,4,5,6,7,8,9,11,12,15,16,17-tetradecahydrocyclopenta[a]phenanthren-17-yl]-5H-furan-2-one]
[4]
  plasma concentration at which significant signs of toxicity are observed: 3 nM
  plasma concentration considered beneficial: about 1 nM
[3]
  effect on heart contractility: no effect on heart contractility
[2]
  effect on force of contraction: increased significantly the force of contraction
  effect on heart rate: without affecting heart rate
[2]; vs 0.1 nM bufalin or ouabain
  concentration required for a similar effect, relative to bufalin or ouabain: about tenfold
